Legend:
[1] = Body weight of R6/2 mice under chronic treatment; format: in vivo, mouse
Description: Study Summary-A total of 46 male R6/2 mice and 15 male wild-type littermate control mice (WT) were used in the study. The mice were genotyped and the R6/2 mice were divided into different treatment groups based on their pre-treatment body weight. The treatment with Compound (Ia) (0.5 or 5 mg/kg; 10 ml/kg, intraperitoneally (i.p.), QD) or Vehicle (10 ml/kg, i.p., QD) was started at 4 weeks of age. Body weights were measured before the treatment onset and continued twice a week until the end of the study. Fine motor kinematic analysis and rotarod test were performed at 10 weeks of age and the open field activity and clasping behavior were measured at 12 weeks of age for all mice. At 8 and 12 weeks of age the glucose uptake was measured by ^18F-FDG PET and the striatal metabolites were measured using MR spectroscopy for 9-10 mice per group. At 13 weeks of age 9-10 mice per group were subjected to tissue sample collection, and the brain and blood samples were collected. The blood samples were used to prepare peripheral blood mononuclear cells (PBMCs) on which the flow cytometry/luminescence analysis was performed for following assays: mitochondrial reactive oxygen species (ROS) (MitoSox), and ATP levels (Cell TiterGlow). […] Body Weights-Body weights were measured at 4 weeks of age (pre-treatment) and twice a week until the end of the study. […]

[2] = tested on: Peripheral Blood Mononuclear Cells (PBMC); assay: CellTiter-Glo 2.0 ATP level assay in PBMCs of treated mice; format: in vivo, mouse; settings: R6/2 mice, 0.5 mg/kg / 5 mg/kg i.p. QD, PBMCs collected at 13 weeks of age
Description: Euthanasia & Sample Collection—At 13 weeks of age, 9 mice per group were euthanized by deep anesthesia with sodium pentobarbital (180 mg/kg). The remaining mice were euthanized and any samples were not collected, except the tail and ear samples. A terminal blood sample (as much as possible) was collected by cardiac puncture into a syringe. The whole blood was placed in Li-Hep tube at RT and used immediately for preparation of PBMCs. The whole brain was collected and fresh frozen in liquid nitrogen and stored at −80° C. Blood was collected also from extra animals as staining controls for the flow cytometry assays (n=3 extra animals per day). […]
PBMC Extraction—Whole blood (approximately 400-500 μL) was stored at room temperature (RT) before the start of the PBMC isolations. […] Right before measurement 1 μL of propidium iodide was added and the cell number and viability was determined by MACSquant Analyzer 10 flow cytometer. […]
The cells were analyzed immediately after the staining using the MACSQuant Analyzer 10 (Miltenyi Biotec) and Cytation 3 (Cell titerglow). […]
ATP Levels: CellTiter-Glo 2.0® Assay—The CellTiter-Glo® 2.0 Assay provides a homogeneous method to determine the number of viable cells in culture by quantitating the amount of ATP present, which indicates the presence of metabolically active cells. […]
• 1. […] Place 50,000 cells/well white walled luminescence suitable plate in DPBS. • 3. […]

Cc1cc(O)cc(C)c1C[C@H](NC(=O)[C@H](N)CCCNC(=N)N)C(=O)N[C@@H](CCCCN)c1nc(Cc2ccccc2)no1.Cl.Cl [Compound (Ia), (R)-2-amino-N—((S)-1-(((S)-5-amino-1-(3-benzyl-1,2,4-oxadiazol-5-yl)pentyl)amino)-3-(4-hydroxy-2,6-dimethylphenyl)-1-oxopropan-2-yl)-5-guanidinopentanamide]
body weight compared to vehicle treated R6/2 mice ([1]; 5 mg/kg i.p. QD): non-significantly higher level
body weight, treated R6/2 groups vs vehicle treated R6/2 mice ([1]; 0.5 or 5 mg/kg i.p. QD from 4 to 13 weeks of age, p>0.05, Mixed-effects model (REML)): no significant differences
ATP levels (Cell Titer Glow) in PBMCs, R6/2+Vehicle vs treated R6/2 [2]: no significant differences

— US20250319073A1, “COMPOSITIONS AND METHODS FOR THE TREATMENT OF HUNTINGTON’S DISEASE AND HTT PROTEINOPATHIES” (priority 2022, published 2025)
